# Measurements reported in PMC8916850, “Preparation of Spice Extracts: Evaluation of Their Phytochemical, Antioxidant, Antityrosinase, and Anti-α-Glucosidase Properties Exploring Their Mechanism of Enzyme Inhibition with Antibrowning and Antidiabetic Studies In Vivo” (BioMed Research International, 2022).
# Target: T1, Mushroom tyrosinase
# T1 construct: gene PPO1
# Assay: dopachrome formation, absorbance at […] nm
# Format: biochemical
# Settings: L-DOPA 0.85 mM, phosphate buffer 20 mM pH 6.8, 37 °C; 10 min preincubation; methods name kojic acid as the standard, table and text name hydroquinone
smiles,measurement,value
Oc1ccc(O)cc1 [hydroquinone],MeOH,131.34 ± 9.82 µg/mL
